The test system of one assay is DNA. Conditions: mutation relative to canonical SpCas9, SEQ ID NO: 18; cited from earlier work.
The test system of assay [1] is 5′-Cy5-labeled dsDNA substrates. In words: In vitro TPRT (prime editing) primer extension assay, denaturing urea PAGE. Format: biochemical. The note with it: standard gRNA (gRNA_0, lane 3), substrates not pre-nicked.
Procedure: All reactions are with M-MLV RT.
Fluorescently labeled (Cy5) DNA targets were used as substrates, and were pre-nicked in this set of experiments. […] Then, the fluorescently labeled DNA substrate was added along with dNTPs and the RT enzyme. After 1 hour of incubation at 37° C., the reaction products were analyzed by denaturing urea-polyacrylamide gel electrophoresis (PAGE).
However, the DNA substrates are not pre-nicked in this set of experiments. […] The reaction products were analyzed by denaturing urea-polyacrylamide gel electrophoresis (PAGE).
Reactions were incubated at 37° C. for 1 hour, then analyzed by denaturing urea PAGE and visualized for Cy5 fluorescence.
Reactions were allowed to proceed at 37° C. for 1 hour prior to separation by denaturing urea PAGE and visualization by Cy5 fluorescence.

As for “1099-1368 deletion: SpCas9 mutation relative to SEQ ID NO: 18”, the “Function/Characteristic (as reported)” value in the assay on DNA was “No nuclease activity”.

As to “Cas9 nickase: Cas9 nickase (SpyCas9 H840A mutant)”, the “cleavage of the DNA strand by the nickase” value in assay [1] was “efficiently cleaves”. Take “H840A: SpCas9 mutation relative to SEQ ID NO: 18”: the “Function/Characteristic (as reported)” value with DNA was “Nickase mutant which cleaves the non-protospacer”. Take “D10A: SpCas9 mutation relative to SEQ ID NO: 18”: the “Function/Characteristic (as reported)” value in the assay on DNA is reported as “Nickase mutant which cleaves the protospacer”.

The record behind these values is patent US20230078265A1, “METHODS AND COMPOSITIONS FOR EDITING NUCLEOTIDE SEQUENCES” (The Broad Institute, Inc., priority 2019, published 2023).
